Type in all cases: cell-based
Experiment [1] deals with HT-29 cells (colorectal adenocarcinoma). The experiment can be described thus: Inhibition of cancer cell proliferation, HT-29 (CellTiterGlo, 72 hours). The conditions noted are these: Homo sapiens. The essentials:
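HT-29 cells seeded at 3000/well, then treated with 3-fold serial dilutions from a 5,000 nM two-fold solution in serum-free RPMI1640, untreated wells as control, for 72 h at 37° C. CellTiterGlo luminescence converted to cell number via a standard curve; GI50 from percent inhibition versus untreated growth.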

The subject of experiment [2] is HCT116 cells (colorectal carcinoma). In words: Inhibition of cancer cell proliferation, HCT116 (CellTiterGlo, 72 hours). To be noted: Homo sapiens, HCT-116. Summed up:
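3000 cells per well exposed to 3-fold serial compound dilutions from 5,000 nM (two-fold solution, stock level) for 72 hours at 37° C. CellTiterGlo luminescence converted to cell number via a standard curve; percent inhibition vs untreated wells, GI50 by curve fit.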
In general terms: Cellular ATP, detected with luciferase, serves as a proxy for viable cell number.

Experiment [3] concerns A375 cells (malignant melanoma). In words: Inhibition of cancer cell proliferation, A375 (CellTiterGlo, 72 hours). The conditions noted are these: Homo sapiens, A-375. The essentials: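 A375 melanoma cells, 3000/well, exposed 72 h at 37 °C to compound in 3-fold serial dilutions (solution added as 2× stock starting at 5,000 nM in serum-free DMEM). CellTiterGlo luminescence converted to cell number via standard curve; % inhibition vs untreated control, GI50 from curve fit.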

What is called GI50 is the concentration at which growth is held to half of that of the control. A higher GI50 goes with lower sensitivity of the cells.

Turning to `C=CC(=O)Nc1cc(C)ccc1Nc1nc(Nc2cc(OC)nc(OC)c2)ncc1C(F)(F)F` [Compound I-96], the GI50 in experiment [1] was below 100 nM; in experiment [2], below 100 nM; in experiment [3], 101 to 500 nM.

For `C=CC(=O)Nc1cc(CCC(N)=O)ccc1Nc1nc(Nc2cc(OC)ncc2C)ncc1C(F)(F)F` [Compound I-400, N-(5-(3-amino-3-oxopropyl)-2-((2-((2-methoxy-5-methylpyridin-4-yl)amino)-5-(trifluoromethyl)pyrimidin-4-yl)amino)phenyl)acrylamide], the GI50 in experiment [1] lay in the range of 101 to 500 nM; in experiment [2], 501 to 999 nM; in experiment [3] it was 101 to 500 nM.

`C=CC(=O)Nc1cc(C)c(F)cc1Nc1nc(Nc2nc(OC)ncc2C)ncc1C(F)(F)F` [Compound I-377, N-(4-fluoro-2-((2-((2-methoxy-5-methylpyrimidin-4-yl)amino)-5-(trifluoromethyl)pyrimidin-4-yl)amino)-5-methylphenyl)acrylamide]: the GI50 is below 100 nM in experiment [1], above 1000 nM in experiment [2] and 101 to 500 nM in experiment [3].

`C=CC(=O)Nc1ccccc1Nc1nc(Nc2cc(OC)ncc2C)ncc1C(F)(F)F` [Compound I-85, N-(2-((2-((2-Methoxy-5-methylpyridin-4-yl)amino)-5-(trifluoromethyl)pyrimidin-4-yl)amino)phenyl)acrylamide]: the figures for the GI50 in experiment [1], in experiment [2] and in experiment [3] were below 100 nM, 101 to 500 nM and below 100 nM, respectively.

On to `C=CC(=O)Nc1cc(C)ccc1Nc1nc(Nc2nc(OC)ccc2Cl)ncc1C(F)(F)F` [Compound I-360, N-(2-((2-((3-chloro-6-methoxypyridin-2-yl)amino)-5-(trifluoromethyl)pyrimidin-4-yl)amino)-5-methylphenyl)acrylamide], for which the 50% growth inhibitory concentration (GI50) is above 1000 nM in experiment [1], above 1000 nM in experiment [2] and 101 to 500 nM in experiment [3].

Consider `C=CC(=O)Nc1cc(C)ccc1Nc1nc(Nc2cc(OCCO)ncc2C)ncc1C(F)(F)F` [Compound I-376, N-(2-((2-((2-(2-hydroxyethoxy)-5-methylpyridin-4-yl)amino)-5-(trifluoromethyl)pyrimidin-4-yl)amino)-5-methylphenyl)acrylamide], for which the GI50 in experiment [1] lay in the range of 101 to 500 nM; in experiment [2], 501 to 999 nM; in experiment [3], 101 to 500 nM.

`C=CC(=O)Nc1cc(CN2CCN(C(=O)c3cnccn3)CC2)ccc1Nc1nc(Nc2cc(OC)ncc2C)ncc1C(F)(F)F` [Compound I-390, N-(2-((2-((2-methoxy-5-methylpyridin-4-yl)amino)-5-(trifluoromethyl)pyrimidin-4-yl)amino)-5-((4-(pyrazine-2-carbonyl)piperazin-1-yl)methyl)phenyl)acrylamide]: the results for the GI50 in experiment [1], in experiment [2] and in experiment [3] were below 100 nM, 101 to 500 nM and below 100 nM, respectively.

With `C=CC(=O)Nc1cc(C)ccc1Nc1nc(Nc2nc(OC)ncc2F)ncc1C(F)(F)F` [Compound I-357, N-(2-((2-((5-fluoro-2-methoxypyrimidin-4-yl)amino)-5-(trifluoromethyl)pyrimidin-4-yl)amino)-5-methylphenyl)acrylamide], the GI50 in experiment [1] was below 100 nM; in experiment [2] it was 501 to 999 nM; in experiment [3], 101 to 500 nM.

Take `C=CC(=O)Nc1cc(CN2CCN(S(C)(=O)=O)CC2)ccc1Nc1nc(Nc2cc(OC)ncc2C)ncc1C(F)(F)F` [Compound I-384, N-(2-((2-((2-methoxy-5-methylpyridin-4-yl)amino)-5-(trifluoromethyl)pyrimidin-4-yl)amino)-5-((4-(methylsulfonyl)piperazin-1-yl)methyl)phenyl)acrylamide]: the values for the GI50 in experiment [1], in experiment [2] and in experiment [3] were below 100 nM, 101 to 500 nM and below 100 nM, respectively.

Regarding `C=CC(=O)Nc1cc(OCC(N)=O)ccc1Nc1nc(Nc2cc(OC)ncc2C)ncc1C(F)(F)F` [Compound I-398, N-(5-(2-amino-2-oxoethoxy)-2-((2-((2-methoxy-5-methylpyridin-4-yl)amino)-5-(trifluoromethyl)pyrimidin-4-yl)amino)phenyl)acrylamide], the GI50 in experiment [1] is below 100 nM; in experiment [2], 101 to 500 nM; in experiment [3] it was below 100 nM.

`C=CC(=O)Nc1cc(C)ccc1Nc1nc(Nc2cc(C(C)=O)ccc2C)ncc1C(F)(F)F` [Compound I-84, N-(2-((2-((5-Acetyl-2-methylphenyl)amino)-5-(trifluoromethyl)pyrimidin-4-yl)amino)-5-methylphenyl)acrylamide]: the GI50 in experiment [1] fell in the range of 101 to 500 nM; in experiment [2] it was 501 to 999 nM; in experiment [3] it was 101 to 500 nM.

With `C=CC(=O)Nc1cc(CN2CCN(C(C)=O)CC2)ccc1Nc1nc(Nc2cc(OC)ncc2C)ncc1C(F)(F)F` [Compound I-381, N-(5-((4-acetylpiperazin-1-yl)methyl)-2-((2-((2-methoxy-5-methylpyridin-4-yl)amino)-5-(trifluoromethyl)pyrimidin-4-yl)amino)phenyl)acrylamide], the GI50 in experiment [1], in experiment [2] and in experiment [3] was 101 to 500 nM each time.

Consider `C=CC(=O)Nc1cc(C)ccc1Nc1nc(Nc2nc(OC)ncc2OC)ncc1C(F)(F)F` [Compound I-349, N-(2-((2-((2,5-dimethoxypyrimidin-4-yl)amino)-5-(trifluoromethyl)pyrimidin-4-yl)amino)-5-methylphenyl)acrylamide], for which the GI50 in experiment [1] was 101 to 500 nM; in experiment [2], above 1000 nM; in experiment [3] it was 101 to 500 nM.

Consider `C=CC(=O)Nc1cc(C)ccc1Nc1nc(Nc2cc(OC)nc(N3CCN(C(C)=O)CC3)c2)ncc1C(F)(F)F` [Compound I-93, N-(2-((2-((2-(4-Acetylpiperazin-1-yl)-6-methoxypyridin-4-yl)amino)-5-(trifluoromethyl)pyrimidin-4-yl)amino)-5-methylphenyl)acrylamide], for which the GI50 in experiment [1], in experiment [2] and in experiment [3] was below 100 nM each time.

On to `C=CC(=O)Nc1cc(C)ccc1Nc1nc(Nc2ccnc3ccccc23)ncc1C(F)(F)F` [Compound I-379, N-(5-methyl-2-((2-(quinolin-4-ylamino)-5-(trifluoromethyl)pyrimidin-4-yl)amino)phenyl)acrylamide], for which the GI50 in experiment [1], in experiment [2] and in experiment [3] was 101 to 500 nM each time.

On to `C=CC(=O)Nc1cc(C)ccc1Nc1nc(Nc2ncc(C(F)(F)F)c(OC)n2)ncc1C(F)(F)F` [Compound I-354, N-(2-((2-((4-methoxy-5-(trifluoromethyl)pyrimidin-2-yl)amino)-5-(trifluoromethyl)pyrimidin-4-yl)amino)-5-methylphenyl)acrylamide], for which the values for the GI50 in experiment [1], in experiment [2] and in experiment [3] were 101 to 500 nM, 501 to 999 nM and 501 to 999 nM, respectively.

Take `C=CC(=O)Nc1cc(C)ccc1Nc1nc(Nc2ncc(F)c(OC)n2)ncc1C(F)(F)F` [Compound I-356, N-(2-((2-((5-fluoro-4-methoxypyrimidin-2-yl)amino)-5-(trifluoromethyl)pyrimidin-4-yl)amino)-5-methylphenyl)acrylamide]: the GI50 is 501 to 999 nM in experiment [1], above 1000 nM in experiment [2] and 501 to 999 nM in experiment [3].

As for `C=CC(=O)Nc1cc(C)ccc1Nc1nc(Nc2cc(N[C@H]3CC[C@](C)(O)CC3)nc(OC)c2)ncc1C(F)(F)F` [Compound I-327, N-(2-((2-((2-((trans-4-hydroxy-4-methylcyclohexyl)amino)-6-methoxypyridin-4-yl)amino)-5-(trifluoromethyl)pyrimidin-4-yl)amino)-5-methylphenyl)acrylamide], the GI50 in experiment [2] and in experiment [3] was below 100 nM each time.

Take `C=CC(=O)Nc1cc(C)ccc1Nc1nc(Nc2nc(OC)ncc2C#N)ncc1C(F)(F)F` [Compound I-346, N-(2-((2-((5-cyano-2-methoxypyrimidin-4-yl)amino)-5-(trifluoromethyl)pyrimidin-4-yl)amino)-5-methylphenyl)acrylamide]: the GI50 lay in the range of 101 to 500 nM in experiment [1], 501 to 999 nM in experiment [2] and 101 to 500 nM in experiment [3].

Take `C=CC(=O)Nc1cc(C)ccc1Nc1nc(Nc2cc(NCCOC)nc(OC)c2)ncc1C(F)(F)F` [Compound I-294, N-(2-((2-((2-methoxy-6-((2-methoxyethyl)amino)pyridin-4-yl)amino)-5-(trifluoromethyl)pyrimidin-4-yl)amino)-5-methylphenyl)acrylamide]: the GI50 in experiment [1], in experiment [2] and in experiment [3] was below 100 nM throughout.

In the case of `C=CC(=O)Nc1cc(C)ccc1Nc1nc(Nc2nc(O)ncc2C)ncc1C(F)(F)F` [Compound I-364, N-(2-((2-((2-hydroxy-5-methylpyrimidin-4-yl)amino)-5-(trifluoromethyl)pyrimidin-4-yl)amino)-5-methylphenyl)acrylamide], the GI50 in experiment [1] is 101 to 500 nM; in experiment [2], 101 to 500 nM; in experiment [3], below 100 nM.

Take `C=CC(=O)Nc1cc(C)c(F)cc1Nc1nc(Nc2nc(OC)ncc2Cl)ncc1C(F)(F)F` [Compound I-374, N-(2-((2-((5-chloro-2-methoxypyrimidin-4-yl)amino)-5-(trifluoromethyl)pyrimidin-4-yl)amino)-4-fluoro-5-methylphenyl)acrylamide]: the GI50 in experiment [1] was 101 to 500 nM; in experiment [2] it was 101 to 500 nM; in experiment [3], below 100 nM.

As to `C=CC(=O)Nc1cc(C)ccc1Nc1nc(Nc2nc(OC)ncc2C)ncc1C(F)(F)F` [Compound I-347, N-(2-((2-((2-methoxy-5-methylpyrimidin-4-yl)amino)-5-(trifluoromethyl)pyrimidin-4-yl)amino)-5-methylphenyl)acrylamide], the GI50 in experiment [1] was 101 to 500 nM; in experiment [2] it was 501 to 999 nM; in experiment [3], below 100 nM.

(Values after patent publication US9561228B2 (Celgene Avilomics Research, Inc., priority 2013, dated 2017).)
